Experimental data as given in ChEMBL document CHEMBL4651402, “Screening of ~5500 FDA-approved drugs and clinical candidates for anti-SARS-CoV-2 activity” (2021).

Test system: SARS-CoV-2
Assay: microbe, parasite or virus in culture
Settings: Severe acute respiratory syndrome coronavirus 2, Vero C1008, 48 h

Compound	IC50	IC50 (read-out: pIC50 (converted))
CCN(CC)CCNC(=O)COc1ccc(OC)cc1 [MEFEXAMIDE]	> 20 µM	> 20 µM
CN(CC1(C)CCCO1)S(=O)(=O)c1ccc(Cl)c(S(N)(=O)=O)c1 (stereo not drawn) [MEFRUSIDE]	> 20 µM	> 20 µM
COc1cc(O)c(C(C)=O)c(OC)c1 [XANTHOXYLIN]	> 20 µM	> 20 µM
CCCCCCCCCCNCCN[C@@]1(C)C[C@H](O[C@H]2[C@H](Oc3c4cc5cc3Oc3ccc(cc3Cl)[C@H](O)[C@@H](NC(=O)[C@@H](CC(C)C)NC)C(=O)N[C@@H](CC(N)=O)C(=O)N[C@H]5C(=O)N[C@@H]3C(=O)N[C@H](C(=O)N[C@H](C(=O)O)c5cc(O)c(CNCP(=O)(O)O)c(O)c5-c5cc3ccc5O)[C@@H](O)c3ccc(c(Cl)c3)O4)O[C@H](CO)[C@@H](O)[C@@H]2O)O[C@@H](C)[C@H]1O	> 20 µM	> 20 µM
Cc1cc(-c2nc(CN3CCNCC3)no2)cc2c1C(=O)N(Cc1ccc(OC(F)(F)F)cc1)C2	> 20 µM	> 20 µM
[N-]=[N+]=N[C@]1(CO)O[C@@H](n2ccc(N)nc2=O)[C@@H](F)[C@@H]1O [RO-0622]	> 20 µM	> 20 µM
Cc1ccc(-c2nc3ccc(C)cn3c2CC(=O)N(C)C)cc1 [ZOLPIDEM]	> 20 µM	> 20 µM
Cc1c(CN(C)C(=O)/C=C/c2cnc3c(c2)CCC(=O)N3)oc2ccccc12 [AFN-1252]	> 20 µM	> 20 µM
OCC1OC(Oc2ccc(O)cc2)C(O)C(O)C1O (stereo not drawn)	> 20 µM	> 20 µM
COc1c(N2C[C@@H]3CCCN[C@@H]3C2)c(F)cc2c(=O)c(C(=O)O)cn(C3CC3)c12 [MOXIFLOXACIN]	> 20 µM	> 20 µM
C[C@H]1Oc2cc(cnc2N)-c2c(nn(C)c2C#N)CN(C)C(=O)c2ccc(F)cc21 [LORLATINIB]	> 20 µM	> 20 µM
C[N+]12CCC(CC1)C(OC(=O)C(O)(c1ccccc1)c1ccccc1)C2 (stereo not drawn)	> 20 µM	> 20 µM
O=C(O)c1ccccc1Nc1ccccc1 [FENAMIC ACID]	> 20 µM	> 20 µM
O=c1cc(-c2ccccc2)oc2cc(O)ccc12 [7-HYDROXYFLAVONE]	> 20 µM	> 20 µM
CCn1c(C(=O)N(C2CC2)C2CC2)cc2c3c(ncn3C)c(Nc3cc(C)n(C)n3)nc21 [BMS-911543]	> 20 µM	> 20 µM
C[N+]1(C)CCCC1COC(=O)C(O)(c1ccccc1)c1ccccc1 (stereo not drawn) [POLDINE]	> 20 µM	> 20 µM
CC1CC[C@@]2(OC1)OC1CC3C4CC[C@H]5C[C@@H](O)CC[C@]5(C)C4C[C@@H](O)[C@]3(C)C1[C@@H]2C (stereo partly drawn)	> 20 µM	> 20 µM

Compound	IC50	IC50 (read-out: pIC50 (converted))
CC(=O)OC1CCC2(C)C(=CCC3C2CCC2(C)C(O)CCC32)C1 (stereo not drawn)	> 20 µM	> 20 µM
CCOc1ccc(Cc2cc([C@@H]3O[C@H](CO)[C@@H](O)[C@H](O)[C@H]3O)ccc2Cl)cc1 [DAPAGLIFLOZIN]	> 20 µM	> 20 µM
COC1COCCC1N[C@@H]1CC[C@@](C(=O)N2CCc3ncc(C(F)(F)F)cc3C2)(C(C)C)C1 (stereo partly drawn)	> 20 µM	> 20 µM
N#Cc1ccc(C(c2ccc(C#N)cc2)n2cncn2)cc1 [LETROZOLE]	> 20 µM	> 20 µM
CN1C(=O)C(O)N=C(c2ccccc2)c2cc(Cl)ccc21 (stereo not drawn) [TEMAZEPAM]	> 20 µM	> 20 µM
O=C(O)CCC(=O)c1ccc(-c2ccccc2)cc1 [FENBUFEN]	> 20 µM	> 20 µM
CCOc1cc2cc(C(=O)O)sc2cc1OCC [TIBENELAST]	> 20 µM	> 20 µM
CCCCC(=O)N(Cc1ccc(-c2ccccc2-c2nnn[nH]2)cc1)[C@H](C(=O)O)C(C)C	> 20 µM	> 20 µM
CCc1cn([C@H]2C[C@H](O)[C@@H](CO)O2)c(=O)[nH]c1=O [EDOXUDINE]	> 100 µM	> 100 µM
Cc1cccn2c(=O)c(-c3nnn[nH]3)cnc12 [PEMIROLAST]	> 20 µM	> 20 µM
CN(C)CCCCCCN(C)C	> 20 µM	> 20 µM
COC(=O)c1ccc2c(c1)NC(=O)/C2=C(\Nc1ccc(N(C)C(=O)CN2CCN(C)CC2)cc1)c1ccccc1 [NINTEDANIB]	> 20 µM	> 20 µM
Cc1nnc(SCC2=C(C(=O)O)N3C(=O)[C@@H](NC(=O)Cn4cnnn4)[C@H]3SC2)s1 [CEFAZOLIN]	> 20 µM	> 20 µM
CCN1[C@@H]2CC[C@H]1C[C@@H](OC(c1ccccc1)c1ccccc1)C2 [ETHYBENZTROPINE]	> 20 µM	> 20 µM
COc1ccc(/C=C\c2cc(OC)c(OC)c(OC)c2)cc1O [COMBRETASTATIN A4]	> 20 µM	> 20 µM
Cc1c(Cl)cccc1Nc1ncccc1C(=O)OCC(O)CO (stereo not drawn) [CLONIXERIL]	> 20 µM	> 20 µM
C=C1C[C@]23C[C@@]1(O)CC[C@H]2[C@@]12C=C[C@H](O)[C@](C)(C(=O)O1)[C@H]2[C@@H]3C(=O)O [GIBBERELLIN GA3]	> 20 µM	> 20 µM
